# Laboratory results published in patent US20190388389A1, “METHODS AND COMPOSITIONS OF CARNOSOL FOR INHIBITING UVB-INDUCED SKIN DAMAGE” (Ohio University, priority 2017, published 2019).
# Experiments:
# NO* in HaCaT cells = assay: Nitric oxide measurement (DAF-2DA) after UVB radiation; format: cell-based, Human; details: 20 μM carnosol
# Experimental: FIGS. 4A-4B: Quantitative analysis of NO* and ONOO^− after UVB radiation. HaCaT cells were irradiated with UVB radiation in the presence or absence of carnosol (20 μM). At indicated time point, cells were stained with DAF-2DA or DAR. The fluorescent intensity was then measured and normalized to cell viability. (FIG. 4A) Quantitative measurement of NO*. (FIG. 4B) Quantitative measurement of ONOO^−. *p<0.05 versus corresponded group with carnosol treatment upon UVB radiation.
# The level of NO* was measured by 5 mM diaminofluorescein diacetate (DAF-2DA) (ex490/em520 nm) and ONOO^− was measured by 5 mM diaminorhodamine (DAR) (ex488/em515 nm). 1×10^5 HaCaT cells were seeded in 96-well plate one day before measurement. […] The cells were then incubated in dark for 2 h at room temperature and the fluorescence was measured by luminometer (Molecular devices Spectra Max M2). The reading was then normalized by AlamarBlue cell viability assay (Life technology). 10% of the Alamar Blue reagent was added to cells with medium followed by 2 h incubation at 37° C. in dark then read the fluorescent at ex570/em590 nm using luminometer (Molecular devices Spectra Max M2).
# Both NO* and ONOO^− are induced by UVB radiation. By using DAF-2DA (5 mM) and DAR (5 mM), the effect of carnosol on intracellular NO* and ONOO^− level, in a time dependent manner upon UVB radiation, was also measured.
# HaCaT cells = assay: Cell survival analysis (Annexin V/PI flow cytometry), HaCaT; format: cell-based
# Experimental: FIGS. 6A-6C: Carnosol protects UVB-induced cell death. Cells were exposed to UVB radiation with different dose of carnosol treatment. At indicated time point, cells were collected and Annexin V/PI apoptosis detection kit was used to detect cell apoptosis. (FIG. 6A) HaCaT cell survival rate with different concentrations (μM) of carnosol treatment at 12 h post UVB radiation. (FIG. 6B) Time dependent assay (h) in the presence or absence of carnosol treatment in HaCaT cells. (FIG. 6C) MEF cells treated with 20 μM carnosol at indicated time point (h). The error bars present the standard deviation of three sets of independent experiments. *p<0.05 versus control group; **p<0.05 versus corresponded UV group.
# (§1) UVB was generated from a Bench XX-Series UV Lamp (UVP Inc.) equipped with two 15-watt UVB tubes (UVP Inc.). The intensity of UVB was calibrated by a UVP model UVX digital radiometer (UVP Inc.) after the lamps warmed up for 5 min. For irradiating cells, the dose rate for 8 mJ/cm^2 or 50 mJ/cm^2 of UVB radiation was 0.8 or 3.8 mW/s respectively. Medium was removed before exposing the cells to UVB. After UVB radiation, fresh medium was added to the culture plates with or without drugs, and the cells were continue incubating at 37° C. with 5% CO2 until further analysis. Carnosol was disovled in DMSO and was irradiated with 50 mJ/cm^2 of UVB radiation at a dose rate of 3.8 mW/s before subjecting to cells or structure analysis using Mass Spectrum.
# Carnosol (Cayman) (FIG. 1) was added to cells at indicated concentration at 1 h before exposing the cells to UVB radiation. After radiation, cells were continuously incubated with or without carnosol in the medium until further analysis.
# Total cell number of 1×10^5 was used for each analysis using flow cytometer. Fluorescein isothiocyanate (FITC) conjugated-annexin V (ANXS)/propidium iodide (PI) apoptosis detection kit (BD Biosciences) were used to stain the cells through the determination of the loss of membrane phospholipid […] and membrane integrity. Cell survival rate (R) was calculated as: R=[1×10^5−number of positive stained cells]/1×10^5. Briefly, the cells were harvested by 0.25% trypsin digestion, combined with the cells floating in the medium and washed twice with cold PBS. The cells were then suspended in ANXS binding buffer (10 mM Hepes/NaOH, pH 7.4, 140 mM NaCl and 2.5 mM CaCl2). The cell suspension was mixed with 5 μL ANXS-FITC and 5 μL PI. The cell mixture was incubated for […] in dark at room temperature and the ANXS/PI double-stained cells were analyzed using a FACSort Flow Cytometer (BD Science) equipped with CellQuest software (BD Science).
# normal skin cells = assay: Cell proliferation with carnosol or its decomposed molecules (FIG. 11); format: cell-based
# Experimental: FIG. 11. The effect of carnosol or its decomposed molecules on cell proliferation was determined.
# as §1
compound,measurement,setting,value
CC(C)c1cc2c(c(O)c1O)[C@@]13CCCC(C)(C)[C@@H]1C[C@@H]2OC3=O [carnosol],reduction of NO* level,NO* in HaCaT cells; average from 2 h to 24 h post UVB,about 40%
same,NO* level of cells without radiation,NO* in HaCaT cells; no UVB,little effect
same,cell survival with UVB radiation,"HaCaT cells; 1 μM carnosol, 12 h post UVB",no statistically significant effect
same,cell survival with UVB radiation,"HaCaT cells; 10 μM carnosol, 12 h post UVB",no statistically significant effect
same,toxicity to the cells without UVB radiation,HaCaT cells; 30 μM carnosol,limited toxicity
same,cell survival,"HaCaT cells; carnosol alone 1-30 μM, no UVB, 12 h",no significant cell survival change
same,cell survival rate,"HaCaT cells; dose assay, 20 μM carnosol, 12 h post UVB, UVB alone 20%",30%
same,cell survival rate,"HaCaT cells; dose assay, 30 μM carnosol, 12 h post UVB, vs 20 μM",no further increasing
same,cell survival rate,"HaCaT cells; time assay, 20 μM carnosol, 6 h post UVB",no significance
same,cell survival rate,"HaCaT cells; time assay, 20 μM carnosol, 12 h post UVB, UVB alone 30%",40%
same,cell survival rate,"HaCaT cells; time assay, 20 μM carnosol, 24 h post UVB, UVB alone 7%",15%
same,protection of the UVB-irradiated cells (proliferation),normal skin cells,partial protection
same,cell proliferation / cell growth in normal skin cells,normal skin cells; without UVB protection context,some effect in inhibiting cell proliferation
